Assay results: paper PMC5015074, “Enhancing Endosomal Escape for Intracellular Delivery of Macromolecular Biologic Therapeutics” (Scientific Reports, 2016)

How the values were obtained:
[1] = test system: GFPβ1-10 expressing H1299 cells; assay: live cell split-GFP fluorescence complementation transduction assay (FACS); assay type: cell-based, human; settings: GFPβ1-10 H1299 cells
Method: (§1) All transduction experiments were performed in 48-well plates. An optimized protocol was established. First, 15,000 or 20,000 cells were plated in each well. Next day, the indicated peptides were pipetted into microcentrifuge tubes. Transduction buffer (60% OptiMEM and 40% PBS) was added to peptide (100 μl total volume), directly mixed by pipetting up and down five times and then immediately transferred to cells. […] All cells were trypsinized and collected in 250 μl OptiMEM without phenol red and analyzed by FACS (GFP, FSC/SSC). 4,000 viable cells were analyzed per sample. Data is presented as fold change in fluorescence compared to non-treated cells.

[2] = test system: GFPβ1-10 expressing MDA-MB-231 breast carcinoma cells; assay: split-GFP complementation transduction assay (FACS); assay type: cell-based, human
Method: as §1

[3] = test system: GFPβ1-10 expressing HaCaT keratinocytes
Method: (§2) Cell morphology was determined by FACS analysis of FSC and SSC. Gates were set manually for viable cells using untreated control cells as reference and the fraction of viable cells compared to non-viable cells was determined for each sample. Data are presented as the relative difference compared to non-treated control cells. Viable cells per sample were determined by measuring number of viable cells that were analyzed per second by FACS. Gates for viable cells were set manually using untreated control cells as reference. Data are presented as the relative difference compared to untreated control cells.

[4] = test system: GFPβ1-10 expressing MCF7 breast carcinoma cells
Method: as §2

[5] = test system: GFPβ1-10 expressing H1299 cells
Method: as §2

[6] = test system: GFPβ1-10 expressing MDA-MB-231 breast carcinoma cells
Method: as §2

[7] = test system: GFPβ1-10 expressing HaCaT keratinocytes; assay: split-GFP complementation transduction assay (FACS); assay type: cell-based, human; settings: dose-dependent analysis by FACS, EED peptide compared to parental GFPβ11-(S-S)-TAT, triplicate samples
Method: as §1

[8] = test system: GFPβ1-10 expressing MCF7 breast carcinoma cells; assay: as above; assay type: cell-based, human; settings: dose-dependent analysis by FACS, EED peptide compared to parental GFPβ11-(S-S)-TAT, triplicate samples
Method: as §1

H1299 G1-10 cells = assay: macropinocytosis assay (70-kDa neutral dextran-Texas Red uptake, FACS); assay type: cell-based, human; settings: 10 μM peptide, 70 min, 70-kDa neutral dextran-Texas Red 100 μg/mL, 37°, triplicate
Method: 3,000 H1299 G1-10 cells were plated in a 48-well plate and treated with 10 μM TAT-P6-GG, TAT-P6-GWWG or TAT-P6-GFWFG peptides for 70 min in the presence of 70-kDa neutral dextran-Texas Red (100 μg/mL; Invitrogen) at 37° in triplicate. Cells were washed, trypsinized and analyzed by FACS (>2,000 cells per sample).

CCN(CC)CCCC(C)Nc1ccnc2cc(Cl)ccc12 (centres unmarked) [Chloroquine, reference compound]
increase in GFP fluorescence of GFPβ11-(S-S)-TAT treated cells on addition of Chloroquine ([1]; low concentration of GFPβ11-(S-S)-TAT peptide plus 100 μM Chloroquine): ~ 4 fold

CCN(c1nc(N)c(C(=O)NC(=N)N)nc1Cl)C(C)C [EIPA, reference compound]
effect of macropinocytosis inhibitor on GFP fluorescence from GFPβ11-TAT, in words ([2]; MDA-MB-231c#G3 pre-treated with 80 μM EIPA, transduced with 60 μM GFPβ11-TAT with 80 μM EIPA for 40 or 80 min, FACS, triplicate): reduced GFP fluorescence to near background levels

GFPβ11-(S-S)-TAT-P6-GFWFG [compound 6, GFPβ11-(S-S)-TAT with PEG6-spaced -GFWFG endosomal escape domain]
increase in GFP fluorescence compared to the parental GFPβ11-(S-S)-TAT peptide ([1]; stated in text for Fig. 4b-e): five-fold | cytotoxicity, in words [3]: non-cytotoxic | cytotoxicity, in words [4]: non-cytotoxic | Cell Viability 15 uM [5]: 0.97 | Cell Viability 30 uM [5]: 0.97 | Cell Viability 45 uM [5]: 0.90 | cytotoxicity, in words [6]: non-cytotoxic | GFP complementation fluorescence / endosomal escape, in words [7]: significantly enhanced endosomal escape | GFP complementation fluorescence / endosomal escape, in words ([2]; MDA-MB-231, dose-dependent analysis by FACS, EED peptide compared to parental GFPβ11-(S-S)-TAT, triplicate samples): significantly enhanced endosomal escape | GFP complementation fluorescence / endosomal escape, in words [8]: significantly enhanced endosomal escape

GFPβ11-(S-S)-TAT-P6-GWGGWG [compound 8]
enhancement of GFP fluorescence compared to the -GWWG motif, in words [1]: decreased the enhancement significantly | Cell Viability 15 uM [5]: 0.96 | Cell Viability 30 uM [5]: 0.98 | Cell Viability 45 uM [5]: 0.97

GFPβ11-(S-S)-TAT-P6-GWWWG [compound 9]
Cell Viability 15 uM [5]: 0.96 | Cell Viability 30 uM [5]: 0.42 | Cell Viability 45 uM [5]: 0.18

TAT-P6-GFWFG [TAT peptide with PEG6-GFWFG endosomal escape domain]
stimulation of macropinocytosis, in words (H1299 G1-10 cells): stimulate macropinocytosis to a similar extent
